# Assay results reported in patent US7807703B2, “Substituted aryl ketones” (Bayer CropScience AG, priority 2002, dated 2010).
# System: weeds
# Test: Pre-emergence test (Example A), herbicidal activity
# Assay type: in vivo
# Conditions: soil sprayed 24 hours after sowing, rated after three weeks
# Experimental: (§1) • Solvent: 5 parts by weight of acetone • Emulsifier: 1 part by weight of alkylaryl polyglycol ether
# (§2) To produce a suitable preparation of active compound, 1 part by weight of active compound is mixed with the stated amount of solvent, the stated amount of emulsifier is added and the concentrate is diluted with water to the desired concentration.
# Seeds of the test plants are sown in normal soil. After 24 hours, the soil is sprayed with the preparation of active compound such that the particular amount of active compound desired is applied per unit area. The concentration of active compound in the spray liquor is chosen such that the particular amount of active compound desired is applied in 1000 liters of water per hectare.
# After three weeks, the degree of damage to the plants is rated in % damage in comparison to the development of the untreated control. The figures denote: • 0%=no effect (like untreated control) • 100%=total destruction
row,Structure (SMILES),activity against weeds (degree of damage)
1,CCS(=O)(=O)NCCOc1c(Cl)ccc(C(=O)C2C(=O)CCCC2=O)c1Cl [Example 4],strong activity
2,"CCn1ncc(C(=O)c2ccc(Cl)c(OCCNS(=O)(=O)CC)c2Cl)c1O [Example 2, 4-[2,4-dichloro-3-(N-ethylsulphonylaminoethoxy)benzoyl]-1-ethyl-5-hydroxypyrazole]",strong activity
3,CCn1ncc(C(=O)c2ccc(Cl)c(OCCNS(C)(=O)=O)c2Cl)c1O [Example 6],strong activity
4,CS(=O)(=O)NCCOc1c(Cl)ccc(C(=O)C2C(=O)CCCC2=O)c1Cl [Example 5],strong activity

# System: not listed separately
# Test: log P determination by reversed-phase HPLC (EEC Directive 79/831 Annex V.A8; acidic or neutral mobile phase)
# Assay type: physicochemical
# Conditions: HPLC reversed-phase C18, 43° C.; acidic range: 0.1% aqueous phosphoric acid, acetonitrile gradient (marked a))
# Procedure, shortened: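 Values marked a) used an acidic eluent of 0.1% aqueous phosphoric acid, those marked b) a neutral eluent of 0.01 molar phosphate buffer, each with acetonitrile rising linearly from 10% to 90%. Column C18 at 43° C, following EEC Directive 79/831 Annex V.A8.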
row,Structure (SMILES),logP
1,CCn1ncc(C(=O)c2ccc(Cl)c(OCCNS(=O)(=O)c3ccc(C)cc3)c2Cl)c1O [Example 3],(I-2) logP = 2.74^a)
2,CCS(=O)(=O)NCCOc1c(Cl)ccc(C(=O)C2C(=O)CCCC2=O)c1Cl [Example 4],logP = 2.36^a)
3,CCn1ncc(C(=O)c2ccc(Cl)c(OCCNS(C)(=O)=O)c2Cl)c1O [Example 6],logP = 1.65^a)
4,CS(=O)(=O)NCCOc1c(Cl)ccc(C(=O)C2C(=O)CCCC2=O)c1Cl [Example 5],logP = 2.16^a)

# Same assay, conditions: reversed-phase C18 HPLC column; HPLC reversed-phase C18, 43° C.; acidic range: 0.1% aqueous phosphoric acid, acetonitrile gradient (marked a)); read-out: logP
row,Structure (SMILES),chromatographic logP
1,"CCn1ncc(C(=O)c2ccc(Cl)c(OCCNS(=O)(=O)CC)c2Cl)c1O [Example 2, 4-[2,4-dichloro-3-(N-ethylsulphonylaminoethoxy)benzoyl]-1-ethyl-5-hydroxypyrazole]",1.86

# System: weeds
# Test: Post-emergence test (Example B), herbicidal activity
# Assay type: in vivo
# Conditions: test plants of 5-15 cm sprayed, rated after three weeks
# Experimental: as §1, §2
# Test plants of a height of 5-15 cm are sprayed with the preparation of active compound such that the particular amounts of active compound desired are applied per unit area. The concentration of the spray liquor is chosen such that the particular amounts of active compound desired are applied in 1000 l of water/ha.
# After three weeks, the degree of damage to the plants is rated in % damage in comparison to the development of the untreated control.
# The figures denote: • 0%=no effect (like untreated control) • 100%=total destruction
row,Structure (SMILES),activity against weeds (degree of damage)
1,CCn1ncc(C(=O)c2ccc(Cl)c(OCCNS(=O)(=O)c3ccc(C)cc3)c2Cl)c1O [Example 3],strong activity
2,CCS(=O)(=O)NCCOc1c(Cl)ccc(C(=O)C2C(=O)CCCC2=O)c1Cl [Example 4],strong activity
3,"CCn1ncc(C(=O)c2ccc(Cl)c(OCCNS(=O)(=O)CC)c2Cl)c1O [Example 2, 4-[2,4-dichloro-3-(N-ethylsulphonylaminoethoxy)benzoyl]-1-ethyl-5-hydroxypyrazole]",strong activity
4,CS(=O)(=O)NCCOc1c(Cl)ccc(C(=O)C2C(=O)CCCC2=O)c1Cl [Example 5],strong activity
